Values after ≈ are worked out from the molar mass of the structure shown.
Legend:
[1] = Concentration of CEs in human urine determined by fully automated FA-SPME/GC-MS; conditions: urine of a volunteer working at water desalination facility; urine diluted 1:1 with ultrapure water before extraction
Experimental: Analyses were performed using a gas chromatograph (Agilent technologies, 7890A GC) coupled with a quadrupole mass selective spectrometer (Agilent technologies, 5975C) equipped with an inert ion source and provided with a split-splitless injection port. An A HP-5 GC fused silica capillary column (Agilent 19091J-413; 30 m×320 μm ID×0.25 μm thickness) was selected to separate the analytes. CTC CombiPAL autosampler (GC sampler 80, Zwingen, Switzerland) was used for the full automated FA-SPME. Ultra high purity helium (99.999%, Abdulah Hashim, Al-Khobar, Saudi Arabia) was used as the carrier gas at a flow rate of 1.3 mL min^−1. The samples were injected in the splitless mode. The temperature program used for the analyses was as follows: the initial temperature was 40° C. held 1 min which was then increased to 118° C. at 10° C. min^−1 and held for 3 min, then to 190 C at 15° C. min^−1 and held for 4 min. The total run time was 18.6 min. The injection port, ion source and interface temperatures were 280° C., 230° C., and 250° C., respectively. For qualitative determinations, the MSD was operated in full-scan mode from m/z 50 to 550 and selective ion monitoring mode was used for the quantification of the analytes. […]
The applicability of the proposed FA-SPME technique for real water and urine sample matrices were evaluated. […]

[2] = cited from earlier work
[3] = cited from earlier work; remark: listed apart in the source

ClCCOCCCl [BCEE, Bis(2-chloroethyl)ether]
concentration in real sample, Human urine [1]: 0.0308 µg/mL | Solubility at 20-25° C. [2]: 10.2 mg/mL (≈ 71.3 mM) | Vapor pressure at 20-25° C. [2]: 1.34 mmHg | Henry's law constant at 20° C. [2]: 0.00089 | Diffusion coefficient in air [2]: 0.069 cm^2 s^−1 | Diffusion coefficient in water [2]: 7.53E−06 cm^2 s^−1

ClCCOCOCCCl [BCEM, Bis(2-chloroethoxy)methane]
concentration in real sample, Human urine [1]: 0.0115 µg/mL | Solubility at 20-25° C. [2]: 1.3534 mg/mL (≈ 7.82 mM) | Vapor pressure at 20-25° C. [2]: 0.179 mmHg | Henry's law constant at 20° C. [2]: 0.001 | Diffusion coefficient in air [2]: 0.058 cm^2 s^−1 | Diffusion coefficient in water [2]: 7.11E−06 cm^2 s^−1 | minimum half-life in water [3]: ≥ 2 years
